Results on five molecules are retold here after publication PMC5052595, “Structure-based discovery of potentially active semiochemicals for Cydia pomonella (L.)” (Scientific Reports, 2016).

pKd: −log10 of the molar value.

Test [1] deals with CpomPBP1. Description: Competitive binding assay with 1-NPN fluorescence probe. More on the design: species or system Cydia pomonella. The conditions noted are these: for pKd: wild type CpomPBP1, 2 μM protein, 2 μM 1-NPN, 50 mM Tris-HCl pH 7.0, read-out: dissociation constant (Kd). Here is the method:
(§1) According to the results of virtual screening and commercial availability of the matched semiochemicals, 8 compounds (including Codlemone) were finally subjected to competitive binding assay by taking 1-NPN as the fluorescence probe. All ligands including 1-NPN were dissolved in ethanol of GC grade. […] The fluorescence was measured on a Hitachi F-4600 spectrofluorimeter with a slit width of 5 nm for excitation and emission. The excitation wavelength was decided to be 337 nm and the fluorescence emissions were recorded from 350 to 500 nm. The in vitro binding assays between CpomPBP2 and small molecule compounds were performed in the same way.
(§2) It was assumed that CpomPBP1 (MT and WT) was 100% active and the binding between protein and ligand was 1:1 at saturation. To analyze the obtained data and to calculate the Kd of each ligand, Graphpad Prism software (Graphpad software, Inc.) was employed.

Test [2] addresses CpomPBP2 (Cydia pomonella, UniProt I3ZNT9). Described as above. Here is the method: as §1, §2
Test [3] concerns CpomPBP1F12A. The test can be described thus: Competitive binding assay, mutant protein. More on the design: species or system Cydia pomonella. The conditions noted are these: F12A; RTln(Kd-MT/Kd-WT). Here is the method:
as §1
(§3) To test binding ability changes of CpomPBP1 caused by the mutation of each target site, the in vitro binding assays between CpomPBP1 proteins (MT and WT CpomPBP1) and ETrME was implemented according to the part of competitive binding assay.
as §2
(§4) The experimental binding free energy of the complexes formed by ETrME and each mutant was calculated by the equation (1): […]
(§5) In this equation, Kd-MT and Kd-WT are the dissociation constants for mutant and wild CpomPBP1 respectively. R stands for the ideal gas constant and T means the temperature in Kelvin.

Test [4] deals with CpomPBP1F36A. The test can be described thus: Competitive binding assay, mutant protein. The conditions noted are these: F36A; RTln(Kd-MT/Kd-WT). Details: species or system Cydia pomonella. Here is the method:
as §1, §3, §2, §4, §5

The subject of test [5] is CpomPBP1I52A. Description: Competitive binding assay, mutant protein. More on the design: species or system Cydia pomonella. The note with it: I52A; RTln(Kd-MT/Kd-WT). Here is the method: as §1, §3, §2, §4, §5
Test [6] concerns CpomPBP1I94A. The test can be described thus: Competitive binding assay, mutant protein. More on the design: species or system Cydia pomonella. The note with it: I94A; RTln(Kd-MT/Kd-WT). Here is the method:
as §1, §3, §2, §4, §5

For test [7], the system named is CpomPBP1W37A. The test can be described thus: Competitive binding assay, mutant protein. More on the design: species or system Cydia pomonella. The conditions noted are these: W37A; RTln(Kd-MT/Kd-WT). Here is the method:
as §1, §3, §2, §4, §5

Chain of CpomPBP2 (I3ZNT9 26-169 limits assumed): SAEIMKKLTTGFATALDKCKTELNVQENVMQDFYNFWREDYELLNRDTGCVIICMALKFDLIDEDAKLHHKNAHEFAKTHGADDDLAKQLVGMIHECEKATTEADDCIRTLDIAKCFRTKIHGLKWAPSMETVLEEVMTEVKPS

Consider `CCCCC/C=C\C/C=C\C/C=C\CCCCCCC(=O)O` [Z-8,11,14-Eicosatrienoic acid], for which, in test [1], the pKd (usually the negative decadic logarithm of the Kd, by convention in mol/L) is 4.89.
Consider `CCC=CCC=CCC=CCCCCCCCCCC(=O)OC` [ETrME], for which the pKd in test [1] was 5.50; in test [2] (CpomPBP2, 1-NPN competitive binding, read-out: dissociation constant (Kd)), 5.06. In addition, the ΔΔGbind-exp in test [3] is given as 2.80 kcal/mol; in test [4], 3.25 kcal/mol; in test [5], 1.86 kcal/mol; in test [6] it was 1.4 kcal/mol; in test [7] it was 3.54 kcal/mol.
On to `CCC=CCC=CCC=CCC=CC=CC(O)CCCC(=O)O` (racemic) [(±)5-HEPE], for which, in test [1], the pKd is 5.08.
Regarding `C/C=C/C=C/CCCCCCCO` [Codlemone, reference compound], the pKd in test [1] is 5.42. Besides, in test [2] (titration course, 1-NPN probe), the “binding to CpomPBP2 (in words)” value is “no binding”.
On to `CCCCC/C=C\C/C=C\CCCCCCCC(=O)O` [Linoleic acid], for which the “binding to CpomPBP1 (in words)” value in test [1] (titration 0 to 64 μM ligand, 1-NPN probe) is listed as “no binding”.
